Measured values: patent publication US20260297060A1, “COMPOUNDS FOR THE DEGRADATION OF MUTANT BRAF” (C4 THERAPEUTICS, INC., priority 2023, published 2026)
Read-outs that look alike come from different tables or passages of the source.

Target: T1, BRAF V600E (Homo sapiens, UniProt P15056+Q96SW2, V600E)
T1 construct: knock-in of the HiBiT tag to the endogenous BRAF V600E locus; host or cells: A375.10 (A375 clonal line, CRISPR HiBiT knock-in at the endogenous BRAF V600E locus)
Experiment: BRAF V600E HiBiT Degradation Assay
Type: cell-based
Method in brief: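 Endogenous HiBiT knock-in on BRAF V600E in A375 cells (clone A375.10); 11-point half-log series, top 10 μM, 2, 6 or 24 h at 37° C. Lytic HiBiT luminescence, background-subtracted, normalized to DMSO; 4-parameter fit gives DC50, Emax (residual protein) and IP (inflection point).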

[1] = A375.10 cells, BRAF V600E, 2 hours, inflection point, read-out: HiBiT-Degradation A375.10 BRAF 2 hours IP
[2] = A375.10 cells, BRAF V600E, 2 hours, read-out: HiBiT-Degradation A375.10 BRAF 2 hours DC50
[3] = A375.10 cells, BRAF V600E, 6 hours, inflection point, read-out: HiBiT-Degradation A375.10 BRAF 6 hours IP
[4] = A375.10 cells, BRAF V600E, 6 hours, read-out: HiBiT-Degradation A375.10 BRAF 6 hours DC50
[5] = A375.10 cells, BRAF V600E, 6 hours, residual protein remaining, read-out: HiBiT-Degradation A375.10 BRAF 6 hours Emax
[6] = A375.10 cells, HiBiT, BRAF V600E, 24 hours, read-out: HiBiT-Degradation A375.10 BRAF 24 hours DC50
[7] = A375.10 cells, HiBiT, BRAF V600E, 24 hours, read-out: HiBiT-Degradation A375.10 BRAF 24 hours Emax
[8] = A375.10 cells, HiBiT, BRAF V600E, 24 hours, read-out: HiBiT-Degradation A375.10 BRAF 24 hours IP
[9] = read-out: HiBiT-Degradation A375.10 BRAF 2 hours Emax, A375.10 cells, BRAF V600E, 2 hours, residual protein remaining
[10] = A375.10 cells, BRAF V600E, 2 hours, residual protein remaining, read-out: HiBiT-Degradation A375.10 BRAF 2 hours Emax

T1 sequence (P15056 whole entry V600E): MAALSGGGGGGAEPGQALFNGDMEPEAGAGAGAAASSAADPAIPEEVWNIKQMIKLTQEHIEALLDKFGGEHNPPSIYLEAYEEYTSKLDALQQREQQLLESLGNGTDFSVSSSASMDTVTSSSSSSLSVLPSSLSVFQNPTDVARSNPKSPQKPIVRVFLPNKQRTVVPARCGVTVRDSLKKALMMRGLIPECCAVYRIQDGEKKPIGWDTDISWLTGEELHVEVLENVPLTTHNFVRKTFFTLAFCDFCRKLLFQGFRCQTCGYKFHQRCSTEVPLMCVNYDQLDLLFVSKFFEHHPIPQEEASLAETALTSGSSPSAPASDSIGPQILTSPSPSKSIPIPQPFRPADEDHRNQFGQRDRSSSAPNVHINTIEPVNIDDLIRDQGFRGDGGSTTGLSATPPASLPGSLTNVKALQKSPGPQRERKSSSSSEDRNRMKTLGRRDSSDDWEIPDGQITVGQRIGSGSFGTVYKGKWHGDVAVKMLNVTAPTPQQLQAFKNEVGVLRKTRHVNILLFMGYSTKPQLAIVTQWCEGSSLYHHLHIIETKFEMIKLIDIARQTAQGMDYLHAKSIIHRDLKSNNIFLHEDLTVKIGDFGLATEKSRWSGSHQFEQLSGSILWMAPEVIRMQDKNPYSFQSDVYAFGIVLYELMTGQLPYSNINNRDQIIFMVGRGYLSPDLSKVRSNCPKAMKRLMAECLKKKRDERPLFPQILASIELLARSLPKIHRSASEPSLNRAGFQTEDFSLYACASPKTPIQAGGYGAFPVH
T1 sequence (Q96SW2 whole entry): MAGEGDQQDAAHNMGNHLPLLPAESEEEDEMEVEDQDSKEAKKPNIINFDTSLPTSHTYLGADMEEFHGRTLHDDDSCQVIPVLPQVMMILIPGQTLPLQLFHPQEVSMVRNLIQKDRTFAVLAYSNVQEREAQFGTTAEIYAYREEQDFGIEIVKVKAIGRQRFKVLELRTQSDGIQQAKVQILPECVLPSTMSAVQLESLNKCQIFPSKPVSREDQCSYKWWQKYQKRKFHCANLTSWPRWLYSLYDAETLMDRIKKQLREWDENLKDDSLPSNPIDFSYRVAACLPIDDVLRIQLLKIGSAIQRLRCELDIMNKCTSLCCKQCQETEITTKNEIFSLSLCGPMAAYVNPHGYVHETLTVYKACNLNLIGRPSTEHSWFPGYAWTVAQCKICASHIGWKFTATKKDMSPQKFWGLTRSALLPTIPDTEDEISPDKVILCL
T1 sequence (Q16531 whole entry partner): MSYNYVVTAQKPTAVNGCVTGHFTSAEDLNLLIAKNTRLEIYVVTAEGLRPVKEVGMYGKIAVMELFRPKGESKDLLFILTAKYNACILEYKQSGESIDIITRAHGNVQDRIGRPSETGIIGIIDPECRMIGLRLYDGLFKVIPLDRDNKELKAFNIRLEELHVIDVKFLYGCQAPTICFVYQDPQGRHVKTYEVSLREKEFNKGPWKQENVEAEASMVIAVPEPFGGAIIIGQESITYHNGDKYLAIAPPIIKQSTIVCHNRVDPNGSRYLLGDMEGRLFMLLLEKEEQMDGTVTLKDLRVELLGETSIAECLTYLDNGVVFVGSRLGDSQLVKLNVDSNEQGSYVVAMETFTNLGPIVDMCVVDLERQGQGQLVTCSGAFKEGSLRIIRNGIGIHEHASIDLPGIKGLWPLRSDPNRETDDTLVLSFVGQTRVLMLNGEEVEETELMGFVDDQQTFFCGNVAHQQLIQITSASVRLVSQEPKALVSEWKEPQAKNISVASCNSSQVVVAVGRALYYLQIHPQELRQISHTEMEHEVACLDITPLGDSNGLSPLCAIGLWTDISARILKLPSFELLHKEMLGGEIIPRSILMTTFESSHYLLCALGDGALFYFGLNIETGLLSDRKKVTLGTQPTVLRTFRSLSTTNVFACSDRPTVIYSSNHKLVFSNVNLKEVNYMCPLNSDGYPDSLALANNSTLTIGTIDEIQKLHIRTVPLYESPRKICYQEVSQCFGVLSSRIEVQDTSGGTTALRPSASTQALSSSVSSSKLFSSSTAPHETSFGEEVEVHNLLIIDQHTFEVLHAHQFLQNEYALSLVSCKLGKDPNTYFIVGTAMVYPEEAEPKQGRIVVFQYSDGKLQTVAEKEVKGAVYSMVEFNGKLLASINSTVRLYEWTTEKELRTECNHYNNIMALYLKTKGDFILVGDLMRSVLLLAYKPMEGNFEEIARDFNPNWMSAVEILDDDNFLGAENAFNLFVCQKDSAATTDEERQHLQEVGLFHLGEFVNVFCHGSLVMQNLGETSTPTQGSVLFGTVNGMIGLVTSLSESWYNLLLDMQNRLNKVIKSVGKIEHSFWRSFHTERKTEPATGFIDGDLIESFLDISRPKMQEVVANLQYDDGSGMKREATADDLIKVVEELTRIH

Compound	DC50 [1] [nM]	DC50 [2] [nM]	DC50 [3] [nM]	DC50 [4] [nM]	Emax [5] [%]	DC50 [6] [nM]	Emax [7] [%]	DC50 [8] [nM]	Emax [9] [%]	Emax [10] [%]	HiBiT-Degradation A375.10 BRAF 2 hours IP (A375.10 cells, BRAF V600E, 2 hours, inflection point)	HiBiT-Degradation A375.10 BRAF 6 hours IP (A375.10 cells, BRAF V600E, 6 hours, inflection point)	HiBiT-Degradation A375.10 BRAF 24 hours IP (A375.10 cells, HiBiT, BRAF V600E, 24 hours)	DC50 (read-out: HiBiT-Degradation A375.10 BRAF 2 hours DC50, A375.10 cells, BRAF V600E, 2 hours) [nM]	DC50 (read-out: HiBiT-Degradation A375.10 BRAF 6 hours DC50, A375.10 cells, BRAF V600E, 6 hours) [nM]	DC50 (read-out: HiBiT-Degradation A375.10 BRAF 24 hours DC50, A375.10 cells, HiBiT, BRAF V600E, 24 hours) [nM]	HiBiT-Degradation A375.10 BRAF 2 hours Emax
CCN(C)S(=O)(=O)Nc1ccc(F)c(Nc2ccc3ncn([C@H]4COC5(CCN(C6CCC(c7cc8c(cc7F)c(N7CCC(=O)NC7=O)nn8C)CC6)CC5)C4)c(=O)c3c2F)c1C#N (single isomer, unassigned) [Compound 67]	< 1000	< 1000	< 1000	< 1000	< 50	< 1000	< 50	< 1000	–	< 50	–	–	–	–	–	–	–
CCN(C)S(=O)(=O)Nc1ccc(F)c(Oc2ccc3ncn([C@H]4COC5(CCN(C6CC(c7cc8c(cc7F)c(N7CCC(=O)NC7=O)nn8C)C6)CC5)C4)c(=O)c3c2)c1C#N (single isomer, unassigned) [Compound 70]	–	–	–	–	< 50	–	< 50	–	–	< 50	*** (<=1 μM)	*** (<=1 μM)	*** (<=1 μM)	< 1000	< 1000	< 1000	–
CCN(C)S(=O)(=O)Nc1ccc(F)c(Oc2ccc3ncn([C@H]4COC5(CCN(C6CCC(c7cc8c(cc7F)c(N7CCC(=O)NC7=O)nn8C)CC6)CC5)C4)c(=O)c3c2)c1F (single isomer, unassigned) [Compound 71]	< 1000	< 1000	< 1000	< 1000	< 50	< 1000	< 50	< 1000	–	< 50	–	–	–	–	–	–	–
CN(CCO)S(=O)(=O)Nc1ccc(F)c(Oc2ccc3ncn([C@H]4COC5(CCN(C6CCC(c7cc8c(cc7F)c(N7CCC(=O)NC7=O)nn8C)CC6)CC5)C4)c(=O)c3c2)c1C#N (single isomer, unassigned) [Compound 73]	< 1000	< 1000	< 1000	< 1000	< 50	< 1000	< 50	< 1000	–	< 50	–	–	–	–	–	–	–
CN(CCO)S(=O)(=O)Nc1ccc(F)c(Oc2ccc3ncn([C@H]4COC5(CCN(C6CCC(c7ccc(NC8CCC(=O)NC8=O)cc7F)CC6)CC5)C4)c(=O)c3c2)c1C#N (single isomer, unassigned) [Compound 76]	< 1000	< 1000	< 1000	< 1000	< 50	< 1000	< 50	< 1000	–	< 50	–	–	–	–	–	–	–
CCN(C)S(=O)(=O)Nc1ccc(F)c(Oc2ccc3ncn([C@H]4COC5(CCN(C6CCC(c7ccc(NC8CCC(=O)NC8=O)cc7F)CC6)CC5)C4)c(=O)c3c2)c1F (single isomer, unassigned) [Compound 78]	< 1000	< 1000	< 1000	< 1000	< 50	< 1000	< 50	< 1000	–	< 50	–	–	–	–	–	–	–
CN(CCO)S(=O)(=O)Nc1ccc(F)c(Oc2ccc3ncn(C4CC5(CCN(C6CCC(c7ccc(NC8CCC(=O)NC8=O)cc7F)CC6)CC5)C4)c(=O)c3c2)c1C#N (single isomer, unassigned) [Compound 79, 6-[2-cyano-6-fluoro-3-[[2-hydroxyethyl(methyl)sulfamoyl]amino]phenoxy]-3-[7-[4-[4-[(2,6-dioxo-3-piperidyl)amino]-2-fluoro-phenyl]cyclohexyl]-7-azaspiro[3.5]nonan-2-yl]-4-oxo-quinazoline]	< 1000	< 1000	< 1000	< 1000	< 50	< 1000	< 50	< 1000	–	< 50	–	–	–	–	–	–	–
CN(CCO)S(=O)(=O)Nc1ccc(F)c(Oc2ccc3ncn(C4CC5(CCN(C6CCC(c7cc8c(cc7F)c(N7CCC(=O)NC7=O)nn8C)CC6)CC5)C4)c(=O)c3c2)c1C#N (single isomer, unassigned) [Compound 81, 6-[2-cyano-6-fluoro-3-[[2-hydroxyethyl(methyl)sulfamoyl]amino]phenoxy]-3-[7-[4-[3-(2,4-dioxohexahydropyrimidin-1-yl)-5-fluoro-1-methyl-indazol-6-yl]cyclohexyl]-7-azaspiro[3.5]nonan-2-yl]-4-oxo-quinazoline]	< 1000	< 1000	< 1000	< 1000	< 50	< 1000	< 50	< 1000	–	50 to 90	–	–	–	–	–	–	–
CCN(C)S(=O)(=O)Nc1ccc(F)c(Oc2ccc3ncn(C4CC5(CCN(C6CCC(c7cc8c(cc7F)c(N7CCC(=O)NC7=O)nn8C)CC6F)CC5)C4)c(=O)c3c2)c1C#N (single isomer, unassigned) [Compound 83, 6-[2-cyano-3-[[ethyl(methyl)sulfamoyl]amino]-6-fluoro-phenoxy]-3-[7-[4-[3-(2,4-dioxohexahydropyrimidin-1-yl)-5-fluoro-1-methyl-indazol-6-yl]-2-fluoro-cyclohexyl]-7-azaspiro[3.5]nonan-2-yl]-4-oxo-quinazoline]	< 1000	< 1000	< 1000	< 1000	< 50	< 1000	< 50	< 1000	< 50	–	–	–	–	–	–	–	–
CCN(C)S(=O)(=O)Nc1ccc(F)c(Oc2ccc3ncn(C4CC5(CCN(C6CCC(c7cc8c(cc7F)c(N7CCC(=O)NC7=O)nn8C)CC6F)CC5)C4)c(=O)c3c2)c1C#N (single isomer, unassigned) [Compound 85]	< 1000	< 1000	–	–	–	–	–	–	–	–	–	–	–	–	–	–	*** (<=50%)
CCN(C)S(=O)(=O)Nc1ccc(F)c(Oc2ccc3ncn(C4CC5(CCN(C6CCC(c7cc8c(cc7F)c(N7CCC(=O)NC7=O)nn8C)CC6F)CC5)C4)c(=O)c3c2)c1C#N (single isomer, unassigned) [Compound 86]	< 1000	< 1000	–	–	–	–	–	–	–	–	–	–	–	–	–	–	*** (<=50%)

Continued, values first:

DC50 [1] [nM]	DC50 [2] [nM]	DC50 [3] [nM]	DC50 [4] [nM]	Emax [5] [%]	DC50 [6] [nM]	Emax [7] [%]	DC50 [8] [nM]	Emax [9] [%]	Emax [10] [%]	HiBiT-Degradation A375.10 BRAF 2 hours IP (A375.10 cells, BRAF V600E, 2 hours, inflection point)	HiBiT-Degradation A375.10 BRAF 6 hours IP (A375.10 cells, BRAF V600E, 6 hours, inflection point)	HiBiT-Degradation A375.10 BRAF 24 hours IP (A375.10 cells, HiBiT, BRAF V600E, 24 hours)	DC50 (read-out: HiBiT-Degradation A375.10 BRAF 2 hours DC50, A375.10 cells, BRAF V600E, 2 hours) [nM]	DC50 (read-out: HiBiT-Degradation A375.10 BRAF 6 hours DC50, A375.10 cells, BRAF V600E, 6 hours) [nM]	DC50 (read-out: HiBiT-Degradation A375.10 BRAF 24 hours DC50, A375.10 cells, HiBiT, BRAF V600E, 24 hours) [nM]	HiBiT-Degradation A375.10 BRAF 2 hours Emax	Compound
< 1000	< 1000	< 1000	< 1000	< 50	< 1000	< 50	< 1000	< 50	–	–	–	–	–	–	–	–	CCN(C)S(=O)(=O)Nc1ccc(F)c(Oc2ccc3ncc([C@@H]4COC5(CCN(C6CCC(c7cc8c(cc7F)c(N7CCC(=O)NC7=O)nn8C)CC6)CC5)C4)nc3c2)c1C#N (single isomer, unassigned) [Compound 54]
< 1000	< 1000	< 1000	< 1000	< 50	< 1000	< 50	< 1000	< 50	–	–	–	–	–	–	–	–	CCN(C)S(=O)(=O)Nc1ccc(F)c(Oc2ccc3ncc([C@H]4COC5(CCN(C6CCC(c7ccc(NC8CCC(=O)NC8=O)cc7F)CC6)CC5)C4)nc3c2)c1C#N (single isomer, unassigned) [Compound 58]
< 1000	< 1000	< 1000	< 1000	< 50	< 1000	< 50	< 1000	< 50	–	–	–	–	–	–	–	–	CCN(C)S(=O)(=O)Nc1ccc(F)c(Oc2ccc3ncc([C@@H]4COC5(CCN(C6CCC(c7ccc(NC8CCC(=O)NC8=O)cc7F)CC6)CC5)C4)nc3c2)c1C#N (single isomer, unassigned) [Compound 60]
< 1000	< 1000	< 1000	< 1000	< 50	< 1000	< 50	< 1000	–	< 50	–	–	–	–	–	–	–	CCN(C)S(=O)(=O)Nc1ccc(F)c(Oc2ccc3ncn([C@H]4COC5(CCN(C6CC(c7ccc(NC8CCC(=O)NC8=O)cc7F)C6)CC5)C4)c(=O)c3c2)c1C#N (single isomer, unassigned) [Compound 62]
< 1000	< 1000	< 1000	< 1000	< 50	< 1000	< 50	< 1000	–	< 50	–	–	–	–	–	–	–	CCN(C)S(=O)(=O)Nc1ccc(F)c(Nc2ccc3ncn([C@H]4COC5(CCN(C6CCC(c7cc8c(cc7F)c(N7CCC(=O)NC7=O)nn8C)CC6)CC5)C4)c(=O)c3c2)c1C#N (single isomer, unassigned) [Compound 64]
